Consider three compounds from patent US10138275B2, “Crystalline powder of cyclic peptide compound, preparation method for same, and uses thereof” (SHANGHAI TECHWELL BIOPHARMACEUTICAL CO., LTD, priority 2014, dated 2018).

Common to all, as to format: physicochemical
A short description of series [1]: Ratio of dry weight to wet weight (Dry/Wet) of filtered solids. To be noted: wet solids weighed after filtration, before drying. An excerpt: As used herein, the term “Dry/Wet” and “ratio of dry weight to wet weight” can be used interchangeably, both of which refer to the ratio of the weight of a compound without solvent(s) to the weight of the compound with solvent(s). In the present invention, wet weight of crystals is obtained by filtering the crystallized solids until no noticeable droplet outflows and weighing the solids.

The nature of series [2]: Filtration through a Buchner funnel until no noticeable droplet outflowed. An excerpt:
In this example, the precipitated solids from Examples 2-10 and Comparative Examples 1-3 were filtered through a Buchner funnel until no noticeable droplet outflowed, and the filtration processes were compared.

Series [3] is described as follows: Vacuum-drying at 25° C. with a water system until no organic solvent detected by GC; purity by HPLC. To be noted: for time Needed (for drying): 25° C., vacuum-drying with a water system until no organic solvent detected by GC; for Purity before drying / Purity after drying: HPLC; for Purity before drying: 5 g of solids; for Purity after drying: vacuum-dried at 25° C. with a water system until no organic solvent detected by GC. An excerpt: High performance liquid chromatography (HPLC) is a common method for determining the purity of a compound, wherein a liquid is used as the mobile phase and a high-pressure transfusion system is used for pumping the mobile phase, such as single solvents with different polarities, a mixture of solvents at different proportions, or buffers, into a column packed with a stationary phase. Each component is separated in the column, and then enters into a detector for detection, thereby analyzing a sample. In the present invention, HPLC is used for determining the purity of the compound of formula I and studying the stability of a sample. Conditions of the HPLC method are listed as follows:
Analysis Column: YMC-ODS 250×4.6 mm, 5 μm;
Mobile phase: acetonitrile:phosphate buffer (pH 3.0)=45:70;
Column temperature: 35° C.;
Diluent: aqueous phosphate buffer;
Detection wavelength: 210 nm;
Gas chromatography (GC) used to separate and measure trace impurities in a compound is an accurate, qualitative and quantitative method of analysis. In the present invention, the content of organic solvents in the crystalline powder of the compound of formula I obtained in the present invention is measured by gas chromatography (GC).
5 g of solids were prepared according to the methods of Examples 2-10 and Comparative Examples 1-3 respectively, placed at 25° C., and vacuum-dried together with a water system until no organic solvent was detected through GC. The time for drying was compared, and the purity of the sample was analyzed.

Series [4] is described as follows: Particle size distribution (d10, d50) by Malvern particle size analyzer / laser diffraction. To be noted: after drying. The protocol:
[…] Wherein, d10 and d50 are means known for indicating the particle size distribution. d50 refers to a value of particle size, and the size of 50 vol/% of particles is smaller than said value. D10 refers to a value of particle size, and the size of 10 vol/% of particles is smaller than said value. The preferred method for determining d10 and d50 is laser diffraction, d50 of the crystalline powder of the compound of formula I according to the present invention is determined as 10-100 um, and d10 is determined as 1-9 um. Preferably, d50 of the crystalline powder is 20-50 um, and d10 thereof is 1-5 um. Before solid-liquid separation, d50 of the crystalline powder of the compound of formula I is 10-100 um, and d10 thereof is 1-9 um. Preferably, d50 of the crystalline powder is 20-50 um, and d10 thereof is 3-6 um.

Series [5] is described as follows: Bulk density of powder by cylinder measurement. Particulars: after drying. The protocol: “Bulk density of powder” is a measurement standard for the relative importance of the interaction between microparticles by comparing the bulk density and tapped density of the powder. Methods for measuring bulk density of powder are known in the art; for example, it can be determined by cylinder measurement, volumetric measurement, and container measurement. Bulk density of the crystalline powder of the compound of formula I according to the present invention is determined as less than 0.7 g/mL, preferably less than 0.6 g/mL, most preferably less than 0.5 g/mL, by cylinder measurement.

Starred links: 1 amine or outer side, 2 acyl side, 3 side chain; linkers in the order of their positions; H or OH if unused. Positions of bridges follow the written chain, without caps; N, C: chain ends. Non-standard residues stand in square brackets, D forms with d. Residues, ends and D or L forms follow the SMILES beside them. *: point of attachment. hTyr(3S-OH,4S-OH,3'-OSO3H) = N[C@H](C(=O)O)[C@H](O)[C@@H](O)c1ccc(O)c(OS(=O)(=O)O)c1; Orn(4R-OH,5R-OH) = O=C([C@H](C[C@@H](O)[C@@H](O)N[*:3])N[*:1])[*:2]; Pro(3S-OH,4S-Me) = C[C@H]1CN[C@H](C(=O)O)[C@H]1O; X1 = CCCCCOc1ccc(-c2cc(-c3ccc(C(=O)*)cc3)no2)cc1; Gln(3R-OH) = NC(=O)C[C@@H](O)[C@H](N)C(=O)O; Hyp = O=C(O)[C@@H]1C[C@@H](O)CN1

Take `CCCCCOc1ccc(-c2cc(-c3ccc(C(=O)N[C@H]4C[C@@H](O)[C@@H](O)NC(=O)[C@@H]5[C@@H](O)[C@@H](C)CN5C(=O)[C@H]([C@H](O)CC(N)=O)NC(=O)[C@H]([C@H](O)[C@@H](O)c5ccc(O)c(OS(=O)(=O)[O-])c5)NC(=O)[C@@H]5C[C@@H](O)CN5C(=O)[C@H]([C@@H](C)O)NC4=O)cc3)no2)cc1.[Na+]` [Comparative Example 2, reference compound] (X1-[Orn(4R-OH,5R-OH)]T[Hyp][hTyr(3S-OH,4S-OH,3'-OSO3H)][Gln(3R-OH)][Pro(3S-OH,4S-Me)]; lactam 1-C): the “ratio of dry weight to wet weight (Dry/Wet)” value (shortened to “ratio … (Dry/Wet)”) in series [1] is on record as 0.13. The compound further yielded a Time for filtration in series [2] of 150 min. Also, in series [3], the “time Needed (for drying)” value was found to be 30 h, the Purity before drying worked out at 98.82% and the Purity after drying is 96.21%.
For the compound `CCCCCOc1ccc(-c2cc(-c3ccc(C(=O)N[C@H]4C[C@@H](O)[C@@H](O)NC(=O)[C@@H]5[C@@H](O)[C@@H](C)CN5C(=O)[C@H]([C@H](O)CC(N)=O)NC(=O)[C@H]([C@H](O)[C@@H](O)c5ccc(O)c(OS(=O)(=O)[O-])c5)NC(=O)[C@@H]5C[C@@H](O)CN5C(=O)[C@H]([C@@H](C)O)NC4=O)cc3)no2)cc1.[Na+]` [Comparative Example 3, reference compound] (X1-[Orn(4R-OH,5R-OH)]T[Hyp][hTyr(3S-OH,4S-OH,3'-OSO3H)][Gln(3R-OH)][Pro(3S-OH,4S-Me)]; lactam 1-C), the “ratio … (Dry/Wet)” value in series [1] is 0.1. For the same compound, the Time for filtration in series [2] amounted to 300 min. In series [3], the “time Needed (for drying)” value is listed as 32 h, the Purity before drying worked out at 98.74% and the Purity after drying came to 96.17%.
With `CCCCCOc1ccc(-c2cc(-c3ccc(C(=O)N[C@H]4C[C@@H](O)[C@@H](O)NC(=O)[C@@H]5[C@@H](O)[C@@H](C)CN5C(=O)[C@H]([C@H](O)CC(N)=O)NC(=O)[C@H]([C@H](O)[C@@H](O)c5ccc(O)c(OS(=O)(=O)[O-])c5)NC(=O)[C@@H]5C[C@@H](O)CN5C(=O)[C@H]([C@@H](C)O)NC4=O)cc3)no2)cc1.[Na+]` [Example 10] (X1-[Orn(4R-OH,5R-OH)]T[Hyp][hTyr(3S-OH,4S-OH,3'-OSO3H)][Gln(3R-OH)][Pro(3S-OH,4S-Me)]; lactam 1-C), in series [4], the “d10, particle size of the crystalline powder” value is recorded as 8.3 um and the “d50, particle size of the crystalline powder” value is 100 um. The compound also returned a Bulk density in series [5] of 0.56 g/mL. Also, in series [1], the “ratio … (Dry/Wet)” value was 0.63. Moreover, in series [3], the “time Needed (for drying)” value was 9 h, the Purity before drying turned out to be 99.5% and the Purity after drying came out at 99.43%.
